Consider 14 compounds from patent US7511144B2, “Reverse hydroxamic acid derivatives” (Kaken Pharmaceutical Co., Ltd., priority 2001, dated 2009).

Common to all, as to type: biochemical
One test concerns the target T1, TACE (Homo sapiens, UniProt P78536).
T1 construct: made in house; host or cells: mammalian cells or insect cells
The experiment in a line: TACE inhibition experiment (in vitro).

For the next test, the target named is T2, Human MMP1 (Homo sapiens, UniProt P03956).
T2 construct: purchased Calbiochem 444208
T2 sequence (P03956 100-469): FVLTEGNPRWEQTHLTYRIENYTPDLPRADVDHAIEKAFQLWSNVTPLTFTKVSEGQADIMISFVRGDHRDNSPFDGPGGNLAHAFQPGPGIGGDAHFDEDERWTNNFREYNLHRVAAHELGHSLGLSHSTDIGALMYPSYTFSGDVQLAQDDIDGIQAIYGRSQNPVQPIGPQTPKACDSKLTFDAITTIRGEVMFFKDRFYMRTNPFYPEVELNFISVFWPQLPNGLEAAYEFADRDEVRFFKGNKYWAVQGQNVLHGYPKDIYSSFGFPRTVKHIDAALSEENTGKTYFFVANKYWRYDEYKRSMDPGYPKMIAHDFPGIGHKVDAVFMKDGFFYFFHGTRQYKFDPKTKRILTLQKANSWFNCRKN
Kind of test: MMP1 inhibition experiment. The conditions noted are these: read-out: IC50 value MMP-1.

A further test deals with T3, Human MMP2 (Homo sapiens, UniProt P08253).
T3 construct: purchased Calbiochem 444213
T3 sequence (P08253 110-660): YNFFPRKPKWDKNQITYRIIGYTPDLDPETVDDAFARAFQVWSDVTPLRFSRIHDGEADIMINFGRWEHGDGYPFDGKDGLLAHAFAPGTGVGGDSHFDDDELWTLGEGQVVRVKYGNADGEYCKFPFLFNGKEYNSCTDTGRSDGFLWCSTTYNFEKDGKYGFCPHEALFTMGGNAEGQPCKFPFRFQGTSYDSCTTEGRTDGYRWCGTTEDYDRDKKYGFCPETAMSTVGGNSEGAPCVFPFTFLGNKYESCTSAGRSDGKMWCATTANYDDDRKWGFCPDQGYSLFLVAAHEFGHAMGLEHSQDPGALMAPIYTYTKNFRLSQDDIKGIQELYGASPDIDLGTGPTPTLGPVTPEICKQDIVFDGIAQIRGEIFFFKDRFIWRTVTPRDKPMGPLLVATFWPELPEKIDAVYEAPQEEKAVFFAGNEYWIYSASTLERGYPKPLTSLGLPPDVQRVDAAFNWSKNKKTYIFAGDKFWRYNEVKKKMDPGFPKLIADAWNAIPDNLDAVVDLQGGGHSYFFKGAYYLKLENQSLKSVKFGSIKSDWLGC
Kind of test: MMP2 inhibition experiment. The conditions noted are these: concentration required for 50% inhibition of enzyme activity; read-out: IC50 value MMP-2.

A further test concerns the target T4, Human MMP3 (Homo sapiens, UniProt P08254).
T4 construct: purchased Calbiochem 444217
Kind of test: MMP3 inhibition experiment. The conditions noted are these: concentration required for 50% inhibition of enzyme activity; read-out: IC50 value MMP-3. Put shortly: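 Fluorescence-quenched substrate NFF-3 (MOCAc/Dnp peptide, 20 μM as prepared) cleaved by 5 ng human MMP3 over 5 hours at 37° C, with inhibition measured from substrate fluorescence.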

For another test, the target named is T5, Human MMP8 (Homo sapiens, UniProt P22894).
T5 construct: purchased Calbiochem 444229
T5 sequence (P22894 101-467): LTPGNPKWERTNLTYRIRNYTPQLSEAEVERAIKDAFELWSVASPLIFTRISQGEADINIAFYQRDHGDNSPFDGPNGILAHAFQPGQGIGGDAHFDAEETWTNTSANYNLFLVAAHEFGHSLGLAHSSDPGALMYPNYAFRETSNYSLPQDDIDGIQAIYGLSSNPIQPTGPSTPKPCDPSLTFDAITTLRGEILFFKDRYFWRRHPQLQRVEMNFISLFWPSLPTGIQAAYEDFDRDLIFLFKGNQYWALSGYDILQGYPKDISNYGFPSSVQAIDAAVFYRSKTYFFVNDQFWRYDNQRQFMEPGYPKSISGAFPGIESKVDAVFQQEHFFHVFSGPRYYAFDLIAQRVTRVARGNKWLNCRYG
The experiment in a line: MMP8 inhibition experiment. The settings on record: concentration required for 50% inhibition of enzyme activity; read-out: IC50 value MMP-8. The gist of the method: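 Human MMP8 activated with APMA for 1 h at 37° C, then incubated with fluorogenic peptide MOCAc-Pro-Leu-Gly-Leu-A2pr(Dnp)-Ala-Arg-NH2 (20 μM stock) for 5 hours at 37° C. Fluorescent substrate cleavage serves as read-out.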

For the next test, the target named is T6, Human MMP9 (Homo sapiens, UniProt P14780).
T6 construct: purchased Calbiochem 444231
T6 sequence (P14780 107-707 limits assumed): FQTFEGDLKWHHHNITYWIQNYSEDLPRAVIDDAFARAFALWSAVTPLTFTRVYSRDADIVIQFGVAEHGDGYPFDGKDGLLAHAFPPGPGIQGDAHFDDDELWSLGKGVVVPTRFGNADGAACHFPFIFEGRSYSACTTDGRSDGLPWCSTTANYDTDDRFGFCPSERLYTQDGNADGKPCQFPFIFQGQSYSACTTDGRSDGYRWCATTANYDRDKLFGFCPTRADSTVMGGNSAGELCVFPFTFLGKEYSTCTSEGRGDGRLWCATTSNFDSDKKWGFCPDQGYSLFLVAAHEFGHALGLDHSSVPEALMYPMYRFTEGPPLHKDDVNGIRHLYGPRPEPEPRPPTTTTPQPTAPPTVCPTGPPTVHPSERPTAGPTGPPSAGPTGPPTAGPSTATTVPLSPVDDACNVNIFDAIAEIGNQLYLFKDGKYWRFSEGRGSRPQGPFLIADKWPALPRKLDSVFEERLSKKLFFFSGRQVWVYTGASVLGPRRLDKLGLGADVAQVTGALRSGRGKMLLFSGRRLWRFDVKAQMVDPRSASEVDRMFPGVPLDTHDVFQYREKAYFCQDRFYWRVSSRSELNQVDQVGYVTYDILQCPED
Kind of test: MMP9 inhibition experiment. The conditions noted are these: read-out: IC50 value MMP-9.

The target of a further test is T7, Human MMP13 (Homo sapiens, UniProt P45452).
T7 construct: purchased Chemicon CC068
Kind of test: MMP13 inhibition experiment. The settings on record: concentration required for 50% inhibition of enzyme activity; read-out: IC50 value MMP-13.

The target of another test is T8, Human MMP14 (Homo sapiens, UniProt P50281).
T8 construct: purchased Biogenesis or Calbiochem 5980-1461 or 475935
The experiment in a line: MMP14 inhibition experiment. The settings on record: concentration required for 50% inhibition of enzyme activity; read-out: IC50 value MMP-14. Put shortly: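 Fluorescence assay: substrate Dnp-Pro-Cha-Gly-Cys(Me)-His-Ala-Lys(Nma)-NH2 (20 μM before equal-volume mixing) incubated at 37° C for 5 hours with 4 ng human MMP14.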

A further test concerns the target T9, Human MMP17 (Homo sapiens, UniProt Q9ULZ9).
T9 construct: purchased Calbiochem 475940
T9 sequence (Q9ULZ9 126-300 limits assumed): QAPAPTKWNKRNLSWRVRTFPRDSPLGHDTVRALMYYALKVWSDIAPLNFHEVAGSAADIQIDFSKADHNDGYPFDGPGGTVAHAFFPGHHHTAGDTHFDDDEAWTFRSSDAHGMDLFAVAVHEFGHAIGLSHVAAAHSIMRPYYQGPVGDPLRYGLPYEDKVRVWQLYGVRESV
Kind of test: MMP17 inhibition test. The settings on record: concentration required for 50% inhibition of enzyme activity; read-out: IC50 value MMP-17.

pIC50: −log10 of the molar value. A value given as a limit tells only on which side of the number the result lay.

T4 sequence (P08254 100-272 limits assumed): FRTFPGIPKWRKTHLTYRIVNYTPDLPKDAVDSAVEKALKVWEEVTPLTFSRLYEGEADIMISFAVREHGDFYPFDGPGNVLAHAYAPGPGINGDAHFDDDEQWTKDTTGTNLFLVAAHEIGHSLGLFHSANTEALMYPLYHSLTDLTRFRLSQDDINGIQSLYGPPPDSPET
T1 sequence (P78536 215-824): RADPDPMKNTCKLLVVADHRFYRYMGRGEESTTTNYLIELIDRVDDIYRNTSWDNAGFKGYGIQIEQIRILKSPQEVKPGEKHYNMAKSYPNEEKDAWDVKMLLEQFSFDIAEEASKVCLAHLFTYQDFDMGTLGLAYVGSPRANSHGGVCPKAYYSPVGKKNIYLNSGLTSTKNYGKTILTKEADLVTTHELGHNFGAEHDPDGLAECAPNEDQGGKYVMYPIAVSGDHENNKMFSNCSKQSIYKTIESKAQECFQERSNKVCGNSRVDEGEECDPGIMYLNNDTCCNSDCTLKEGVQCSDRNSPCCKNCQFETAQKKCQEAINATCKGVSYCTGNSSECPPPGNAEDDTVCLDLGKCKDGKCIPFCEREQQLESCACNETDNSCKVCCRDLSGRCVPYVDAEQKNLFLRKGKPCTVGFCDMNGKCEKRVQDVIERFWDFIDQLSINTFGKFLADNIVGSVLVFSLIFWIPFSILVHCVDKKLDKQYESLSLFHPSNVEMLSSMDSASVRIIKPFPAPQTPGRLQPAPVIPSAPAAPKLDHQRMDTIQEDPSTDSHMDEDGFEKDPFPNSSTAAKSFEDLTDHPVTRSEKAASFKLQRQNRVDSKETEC
Protocol for Human MMP13: Human MMP13 (Chemicon #CC068) in amount of 90 μL (200 ng) was activated by mixing with 10 μL of 10 mM APMA, followed by reaction for 1 hour at 37° C. This enzyme solution in amount of 0.6 μL was diluted to 90 μL with the assay buffer A, which was added to 90 μL of 20 μM fluorescent substrate (Dnp-Pro-Cha-Gly-Cys(Me)-His-Ala-Lys(Nma)-NH2) prepared in the assay buffer B, followed by reaction for 4 hours at 37° C.
Protocol for Human MMP2: This enzyme solution in amount of 10 μL was diluted to 90 μL with the assay buffer A, which was added to 90 μL of 20 μM fluorescent substrate (MOCAc((7-methoxycoumarin-4-yl)acetyl)-Pro-Leu-Gly-Leu-A2pr(Dnp)-Ala-Arg-NH2, Peptide Institute, Inc., #3163-v) prepared in the assay buffer B, followed by reaction for 5 hours at 37° C.
Protocol for Human MMP9: The methods of inhibition experiments carried out for various MMPs are described below.
This enzyme solution in amount of 1 μL was diluted to 90 μL with the assay buffer A, which was added to 90 μL of 20 μM fluorescent substrate (Dnp-Pro-Cha-Gly-Cys(Me)-His-Ala-Lys(Nma)-NH2) prepared in the assay buffer B, followed by reaction for 4 hours at 37° C.

Take `CCC(CC)CN1CCC(CC(CS(=O)(=O)c2ccc(OCc3cc(C)nc4ccccc34)cc2)N(O)C=O)CC1` (stereo not drawn) [Example I-71]: the pIC50 on TACE was 7.70; at Human MMP1, less than 4.00; on Human MMP2 it was 6.11; at Human MMP3, 6.40; on Human MMP8, 5.00; on Human MMP9, 4.42. For the same compound, the pIC50 on Human MMP13 is 5.85; on Human MMP14, 4.15; at Human MMP17, 7.22.

Take `Cc1cc(COc2ccc(S(=O)(=O)CC(C3CSC(=O)N3C)N(O)C=O)cc2)c2ccccc2n1` (stereo not drawn) [Example I-58]: the pIC50 against TACE was 8.51; at Human MMP1, less than 4.00; at Human MMP2, 4.68; at Human MMP3, 5.72; on Human MMP8 it was 4.96; on Human MMP9, less than 4.00. The figures for the pIC50 at Human MMP13, on Human MMP14 and at Human MMP17 were 4.57, less than 4.00 and 6.24, respectively.

On to `Cc1ccc2nc(C)cc(COc3ccc(S(=O)(=O)CC(c4ccccc4C)N(O)C=O)cc3)c2c1` (stereo not drawn) [Example I-77], for which the pIC50 against TACE was 7.59; on Human MMP1, 4.13; at Human MMP2, 4.15; on Human MMP3, 5.52; at Human MMP8 it was less than 4.00; on Human MMP9, 4.10. Besides, the values for the pIC50 at Human MMP13, on Human MMP14 and on Human MMP17 were 4.55, 4.26 and 5.12, respectively.

With `Cc1cc(COc2ccc(S(=O)(=O)CC(c3cccnc3C)N(O)C=O)cc2)c2ccccc2n1` (stereo not drawn) [Example I-67], the pIC50 against TACE was 8.52; at Human MMP1, less than 4.00; at Human MMP2, 4.70; on Human MMP3, 5.57; on Human MMP8 it was 4.74; at Human MMP9, less than 4.00. For the same compound, the figures for the pIC50 at Human MMP13, on Human MMP14 and at Human MMP17 were 4.52, 4.15 and 5.85, respectively.

On to `Cc1cncc(C(CS(=O)(=O)c2ccc(OCc3cc(C)nc4ccc(C)cc34)cc2)N(O)C=O)c1` (stereo not drawn) [Example I-78], for which the pIC50 was 8.51 at TACE; less than 4.00 on Human MMP1; 4.44 on Human MMP2; 5.55 on Human MMP3; 4.28 at Human MMP8; less than 4.00 on Human MMP9. Also, the figures for the negative-log IC50 (pIC50) on Human MMP13, on Human MMP14 and on Human MMP17 were 4.80, 4.26 and 5.41, respectively.

Take `Cc1cncc(C(CS(=O)(=O)c2ccc(OCc3cc(C)nc4ccc(F)cc34)cc2)N(O)C=O)c1` (stereo not drawn) [Example I-80]: the pIC50 against TACE is 8.35; on Human MMP1 it was less than 4.00; at Human MMP2, 4.74; on Human MMP3 it was 5.40; at Human MMP8, 4.57; on Human MMP9, less than 4.00. The negative logarithm of the IC50 (pIC50) at Human MMP13 is 4.64; on Human MMP14, less than 4.00; at Human MMP17, 5.15.

`Cc1ccc(CCCC(CS(=O)(=O)c2ccc(OCc3cc(C)nc4ccccc34)cc2)N(O)C=O)cc1` (stereo not drawn) [Example I-37]: the pIC50 at TACE is 6.77; at Human MMP1, 4.24; on Human MMP2 it was 5.57; on Human MMP3, 5.70; at Human MMP8, 4.60; at Human MMP9, 4.66. Besides, the results for the pIC50 at Human MMP13, on Human MMP14 and on Human MMP17 were 5.22, 4.48 and 5.96, respectively.

On to `Cc1cc(COc2ccc(S(=O)(=O)CC(C3CCN(C(=O)OC(C)(C)C)CC3)N(O)C=O)cc2)c2ccccc2n1` (stereo not drawn) [Example I-68], for which the negative-log IC50 (pIC50) at TACE is 7.64; at Human MMP1 it was 4.10; on Human MMP2 it was 5.82; on Human MMP3 it was 6.30; at Human MMP8, 5.10; at Human MMP9, 4.30. Besides, the pIC50 is 6.28 on Human MMP13, 4.40 at Human MMP14 and 6.66 on Human MMP17.

With `CCC(CC)C(=O)N1CCC(CC(CS(=O)(=O)c2ccc(OCc3cc(C)nc4ccccc34)cc2)N(O)C=O)C(C)C1` (stereo not drawn) [Example I-64], the negative-log IC50 (pIC50) was 8.29 against TACE; 4.24 at Human MMP1; 5.05 on Human MMP2; 6.15 on Human MMP3; 4.77 at Human MMP8; 4.24 on Human MMP9. In addition, the results for the negative logarithm of the IC50 (pIC50) on Human MMP13, at Human MMP14 and on Human MMP17 were 4.77, 4.19 and 6.24, respectively.

In the case of `CC(=C1CCOCC1)C(CS(=O)(=O)c1ccc(OCc2cc(C)nc3ccccc23)cc1)N(O)C=O` (stereo not drawn) [Example I-15], the pIC50 at TACE is 8.26; on Human MMP1 it was less than 4.00; on Human MMP2, 4.42; at Human MMP3, 5.05; at Human MMP8, 4.22; at Human MMP9, less than 4.00. The pIC50 on Human MMP13 is 4.52; at Human MMP14 it was 4.15; on Human MMP17, 5.46.

Regarding `Cc1cc(COc2ccc(S(=O)(=O)CC(N(O)C=O)C3(C)CCOCC3)cc2)c2ccccc2n1` (stereo not drawn) [Example I-60, N-hydroxy-N-{2-[4-(2-methylquinolin-4-ylmethoxy)benzenesulfonyl]-1-(4-methyltetrahydropyran-4-yl)ethyl}formamide], the negative logarithm of the IC50 (pIC50) at TACE is 8.08; at Human MMP1 it was less than 4.00; on Human MMP2, 4.22; on Human MMP3, 5.60; on Human MMP8, 5.00; on Human MMP9, less than 4.00. Further, the pIC50 is 4.25 at Human MMP13, less than 4.00 on Human MMP14 and 6.29 at Human MMP17.

As for `COCc1cc(COc2ccc(S(=O)(=O)CC(C=C3CCC4(CC3)OCCO4)N(O)C=O)cc2)cc(C)n1` (stereo not drawn) [Example I-118], the negative logarithm of the IC50 (pIC50) against TACE is 6.64; on Human MMP1 it was less than 4.00; at Human MMP2 it was 4.70; at Human MMP3, 4.52; at Human MMP8, 4.49; at Human MMP9 it was less than 4.00. The pIC50 at Human MMP13 is 4.51; on Human MMP14, less than 4.00; on Human MMP17, 4.40.

On to `Cc1cc(COc2ccc(S(=O)(=O)CC(C=C3CCN(C(=O)C(C)(C)C)CC3)N(O)C=O)cc2)c2ccccc2n1` (stereo not drawn) [Example I-25, N-{1-[1-(2,2-Dimethylpropionyl)piperidin-4-ylidenemethyl]-2-[4-(2-methylquinolin-4-ylmethoxy)benzenesulfonyl]ethyl}-N-hyroxyformamide], for which the pIC50 against TACE was 8.00; at Human MMP1, 4.40; at Human MMP2, 5.89; at Human MMP3, 6.96; at Human MMP8, 5.30; at Human MMP9, 5.10. In addition, the pIC50 at Human MMP13 is 6.15; at Human MMP14 it was 4.70; at Human MMP17 it was 6.92.

Consider `O=CN(O)C(C=C1CCC(=NO)CC1)CS(=O)(=O)c1ccc(OCc2ccc3ccccc3n2)cc1` (stereo not drawn) [Example I-86], for which the pIC50 was 6.38 against TACE; less than 4.00 at Human MMP1; 5.24 on Human MMP2; 4.21 at Human MMP3; less than 4.00 on Human MMP8; 4.15 on Human MMP9. Also, the pIC50 is 4.66 on Human MMP13, 4.15 on Human MMP14 and 4.51 at Human MMP17.
